These results are taken from publication PMC6274369, “Novel Anthranilamide-Based FXa Inhibitors: Drug Design, Synthesis and Biological Evaluation” (Molecules, 2016).

Molecules are shown by their SMILES.

In one assay the test system is FXa. The settings on record: Figure 4, design basis; no reference given; cited from earlier work.
A further assay addresses T1, human FIIa (Homo sapiens, UniProt P00734).
T1 construct: purchased Hyphen BioMed, Paris, France
As to the kind of experiment: Thrombin inhibition in vitro (chromogenic substrate CS-01(38)). In kind it is biochemical. The settings on record: tested 10 μM to 100 μM. On the procedure: The inhibition of thrombin was measured using human FIIa (Hyphen BioMed, Paris, France) and chromogenic substrate CS-01(38) (Hyphen BioMed, Paris, France) in 384-well microtiter plates at room temperature. […] 2 μL of FIIa (3 NIH/mL), 20 μL of Tris buffer (adjust to pH 7.4 with HCl) containing 0.3 M NaCl and 50 mM Tris and 2 μL of test compound were added to the well, respectively. The negative control was composed of the same mixed solutions except replacing test compound with DMSO. The positive control was composed of the same mixed solutions except replacing test compound with Rivaroxaban. After incubated at 37 °C for 5 min, 3 μL of FIIa substrate solution (4 mM) was added and then incubated at 37 °C for 25 min. The FIIa activity was measured at 405 nm using a SpectraMax M5 (Molecular Devices).

Another assay addresses T2, human FXa (Homo sapiens, UniProt P00742).
T2 construct: purchased Hyphen BioMed, Paris, France
As to the kind of experiment: Inhibition of FXa in vitro (chromogenic substrate CS-11(22)). In kind it is biochemical. The settings on record: for Ki: Km = 2.4; for IC50: chromogenic substrate, 37 °C, pH 7.4. Here is the method:
The inhibition of FXa was measured using human FXa (Hyphen BioMed, Paris, France) and chromogenic substrate CS-11(22) (Hyphen BioMed, Paris, France) in 384-well microtiter plates at room temperature. […] 2 μL of FXa (56.8 nM), 16 μL of Tris buffer (adjust to pH 7.4 with HCl containing 0.3 M NaCl and 50 mM Tris) and 3 μL of test compound were added to the well, respectively. The negative control was composed of the same mixed solutions except replacing test compound with DMSO. […] After incubated at 37 °C for 5 min, 8 μL of FXa substrate solution (3.5 mM) was added and then incubated at 37 °C for 25 min. The FXa activity was measured at 405 nm using a SpectraMax M5 (Molecular Devices, Sunnyvale, CA, USA). The IC50 was calculated by the software named SPSS (IBM, North Castle, NY, USA) and the Probit function in it.

For another assay, the system named is rat plasma. Description: Prothrombin time (PT) assay in rat plasma. In kind it is biochemical. The settings on record: concentration doubling prothrombin time. Here is the method: (§1) A commercially available automatic coagulometer (Steellex Science Instrument Co., Ltd., Beijing, China) was employed to measure PT. The clotting times were also measured using the instrument itself, in accordance with the manufacturer’s instructions. Increasing concentrations of inhibitor or solvent were added to rat (Sprague-Dawley rats, Shanchuanhong Experimental Animals Co., Ltd., Tianjin, China) and human plasma and incubated for 3 min at 37 °C. Prothrombin time (PT) was determined by automatic coagulometer.

A further assay has as its system human plasma. As to the kind of experiment: Prothrombin time (PT) assay in human plasma. Format: biochemical. The settings on record: concentration doubling prothrombin time. Here is the method: as §1
The subject of another assay is thrombin. On the set-up: method as in PMID 16305517. The settings on record: read-out: selectivity against thrombin (IC50); cited from earlier work.

As for `COc1ccc(NC(=O)c2ccc(C(=N)N(C)C)cc2)c(C(=O)Nc2ccc(Cl)cn2)c1` [Betrixaban], the half-inhibitory concentration (IC50) (commonly the concentration at which inhibition is half-maximal) in the assay with FXa is […].

T2 sequence (P00742 235-488 limits assumed): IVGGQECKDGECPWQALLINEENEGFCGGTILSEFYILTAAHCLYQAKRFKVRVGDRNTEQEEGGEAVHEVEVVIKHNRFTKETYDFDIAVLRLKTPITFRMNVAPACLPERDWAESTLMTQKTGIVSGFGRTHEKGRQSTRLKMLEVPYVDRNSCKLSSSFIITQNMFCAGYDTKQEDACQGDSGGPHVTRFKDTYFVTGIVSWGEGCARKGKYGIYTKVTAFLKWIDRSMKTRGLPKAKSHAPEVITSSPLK
T2 sequence (P00742 41-179 partner limits assumed): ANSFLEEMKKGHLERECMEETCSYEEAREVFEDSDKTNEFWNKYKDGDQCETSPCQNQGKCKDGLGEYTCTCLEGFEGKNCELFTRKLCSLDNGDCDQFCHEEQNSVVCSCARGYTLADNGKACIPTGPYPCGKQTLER

`O=C(Nc1ccccc1C(=O)Nc1ccc(-n2ccccc2=O)cc1)c1ccc(Cl)s1` [Compound 1a, 5-Chloro-N-(2-((4-(2-oxopyridin-1(2H)-yl)phenyl)carbamoyl)phenyl)thiophene-2-carboxamide] registered an IC50 at human FIIa of over 10000 nM. In addition, at human FXa, affinity was put at a Ki of 22 nM and the half-inhibitory concentration (IC50) worked out at 30.2 nM.

At human FXa, `O=C(Nc1ccccc1C(=O)Nc1ccc(-n2ccccc2=O)cc1)c1ccc(F)cc1` [Compound 1b, 2-(4-Fluorobenzamido)-N-(4-(2-oxopyridin-1(2H)-yl)phenyl)benzamide] showed an IC50 of over 1000 nM.

On human FXa, `O=C(Nc1ccccc1C(=O)Nc1ccc(-n2ccccc2=O)cc1)c1ccc(Cl)cc1` [Compound 1c, 2-(4-Chlorobenzamido)-N-(4-(2-oxopyridin-1(2H)-yl)phenyl)benzamide] registered a half-maximal inhibitory concentration (IC50) of 197 nM.

`O=C(Nc1ccc(Cl)cc1C(=O)Nc1ccc(-n2ccccc2=O)cc1)c1ccc(Cl)s1` [Compound 1d, 5-Chloro-N-(4-chloro-2-((4-(2-oxopyridin-1(2H)-yl)phenyl)carbamoyl)phenyl)thiophene-2-carboxamide] showed an IC50 against human FXa of 430 nM.

`O=C(Nc1ccc(Cl)cc1C(=O)Nc1ccc(-n2ccccc2=O)cc1)c1ccc(F)cc1` [Compound 1e, 5-Chloro-2-(4-fluorobenzamido)-N-(4-(2-oxopyridin-1(2H)-yl)phenyl)benzamide] registered an IC50 on human FXa of over 1000 nM.

As to `O=C(Nc1ccc(Cl)cc1C(=O)Nc1ccc(-n2ccccc2=O)cc1)c1ccc(Cl)cc1` [Compound 1f, 5-Chloro-2-(4-chlorobenzamido)-N-(4-(2-oxopyridin-1(2H)-yl)phenyl)benzamide], it took 570 nM to reach half-maximal inhibition on human FXa (IC50).

`Cc1ccc(NC(=O)c2ccc(Cl)s2)c(C(=O)Nc2ccc(-n3ccccc3=O)cc2)c1` [Compound 1g, 5-Chloro-N-(4-methyl-2-((4-(2-oxopyridin-1(2H)-yl)phenyl)carbamoyl)phenyl)thiophene-2-carboxami-de] yielded a half-inhibitory concentration (IC50) at human FIIa of over 10000 nM. Besides, at human FXa, the affinity, expressed as Ki, was 16.4 nM and the IC50 was 25 nM. In addition, the “2 × PT (μM) (Rat)” value with rat plasma is 19.7 µM. The “2 × PT (μM) (Human)” value in the assay with human plasma turned out to be 12.8 µM.

On human FXa, `Cc1ccc(NC(=O)c2ccc(F)cc2)c(C(=O)Nc2ccc(-n3ccccc3=O)cc2)c1` [Compound 1h, 2-(4-Fluorobenzamido)-5-methyl-N-(4-(2-oxopyridin-1(2H)-yl)phenyl)benzamide] returned an IC50 of over 1000 nM.

On to `Cc1ccc(NC(=O)c2ccc(Cl)cc2)c(C(=O)Nc2ccc(-n3ccccc3=O)cc2)c1` [Compound 1i, 2-(4-Chlorobenzamido)-5-methyl-N-(4-(2-oxopyridin-1(2H)-yl)phenyl)benzamide], for which, at human FXa, inhibition was half-maximal at 511 nM (IC50).

Molecule `Cc1cccc(C(=O)Nc2ccc(-n3ccccc3=O)cc2)c1NC(=O)c1ccc(Cl)s1` [Compound 1j, 5-Chloro-N-(2-methyl-6-((4-(2-oxopyridin-1(2H)-yl)phenyl)carbamoyl)phenyl)thiophene-2-carboxami-de] came in with a half-inhibitory concentration (IC50) against human FXa of over 1000 nM.

`Cc1cccc(C(=O)Nc2ccc(-n3ccccc3=O)cc2)c1NC(=O)c1ccc(F)cc1` [Compound 1k, 2-(4-Fluorobenzamido)-3-methyl-N-(4-(2-oxopyridin-1(2H)-yl)phenyl)benzamide]: the IC50 against human FXa is over 1000 nM.

On to `Cc1cccc(C(=O)Nc2ccc(-n3ccccc3=O)cc2)c1NC(=O)c1ccc(Cl)cc1` [Compound 1l, 2-(4-Chlorobenzamido)-3-methyl-N-(4-(2-oxopyridin-1(2H)-yl)phenyl)benzamide], for which, on human FXa, the 50% inhibitory concentration (IC50) is over 1000 nM.

On to `O=C(Nc1ccccc1C(=O)Nc1ccc(N2CCOCC2=O)cc1)c1ccc(Cl)s1` [Compound 1m, 5-Chloro-N-(2-((4-(3-oxomorpholino)phenyl)carbamoyl)phenyl)thiophene-2-carboxamide], for which inhibition against human FXa was half-maximal at 317 nM (IC50).

With `O=C(Nc1ccccc1C(=O)Nc1ccc(N2CCOCC2=O)cc1)c1ccc(F)cc1` [Compound 1n, 2-(4-Fluorobenzamido)-N-(4-(3-oxomorpholino)phenyl)benzamide], the IC50 against human FXa was over 1000 nM.

As for `O=C(Nc1ccccc1C(=O)Nc1ccc(N2CCOCC2=O)cc1)c1ccc(Cl)cc1` [Compound 1o, 2-(4-Chlorobenzamido)-N-(4-(3-oxomorpholino)phenyl)benzamide], inhibition on human FXa was half-maximal at 440 nM (IC50).

In the case of `O=C(Nc1ccc(Cl)cc1C(=O)Nc1ccc(N2CCOCC2=O)cc1)c1ccc(Cl)s1` [Compound 1p, 5-Chloro-N-(4-chloro-2-((4-(3-oxomorpholino)phenyl)carbamoyl)phenyl)thiophene-2-carboxamide], the IC50 at human FXa is 111 nM.

In turn, `O=C(Nc1ccc(Cl)cc1C(=O)Nc1ccc(N2CCOCC2=O)cc1)c1ccc(F)cc1` [Compound 1q, 5-Chloro-2-(4-fluorobenzamido)-N-(4-(3-oxomorpholino)phenyl)benzamide] had an IC50 against human FXa of over 1000 nM.

On human FXa, `O=C(Nc1ccc(Cl)cc1C(=O)Nc1ccc(N2CCOCC2=O)cc1)c1ccc(Cl)cc1` [Compound 1r, 5-Chloro-2-(4-chlorobenzamido)-N-(4-(3-oxomorpholino)phenyl)benzamide] returned an IC50 of 951 nM.

As for `Cc1ccc(NC(=O)c2ccc(Cl)s2)c(C(=O)Nc2ccc(N3CCOCC3=O)cc2)c1` [Compound 1s, 5-Chloro-N-(4-methyl-2-((4-(3-oxomorpholino)phenyl)carbamoyl)phenyl)thiophene-2-carboxamide], the IC50 at human FIIa is over 10000 nM; at human FXa, 71 nM. Besides, at human FXa, the inhibition constant Ki (usually the equilibrium dissociation constant of an inhibitor or competing ligand from its target) was found to be 54.4 nM. Also, the “2 × PT (μM) (Rat)” value in the assay with rat plasma is 24.2 µM. The “2 × PT (μM) (Human)” value in the assay on human plasma is 10.4 µM.

Regarding `Cc1ccc(NC(=O)c2ccc(F)cc2)c(C(=O)Nc2ccc(N3CCOCC3=O)cc2)c1` [Compound 1t, 2-(4-Fluorobenzamido)-5-methyl-N-(4-(3-oxomorpholino)phenyl)benzamide], the IC50 against human FXa was over 1000 nM.

`Cc1ccc(NC(=O)c2ccc(Cl)cc2)c(C(=O)Nc2ccc(N3CCOCC3=O)cc2)c1` [Compound 1u, 2-(4-Chlorobenzamido)-5-methyl-N-(4-(3-oxomorpholino)phenyl)benzamide] had a half-maximal inhibitory concentration (IC50) on human FXa of over 1000 nM.

In the case of `Cc1cccc(C(=O)Nc2ccc(N3CCOCC3=O)cc2)c1NC(=O)c1ccc(Cl)s1` [Compound 1v, 5-Chloro-N-(2-methyl-6-((4-(3-oxomorpholino)phenyl)carbamoyl)phenyl)thiophene-2-carboxamide], the concentration for half-maximal inhibition (IC50) on human FXa was over 1000 nM.

Molecule `Cc1cccc(C(=O)Nc2ccc(N3CCOCC3=O)cc2)c1NC(=O)c1ccc(F)cc1` [Compound 1w, 2-(4-Fluorobenzamido)-3-methyl-N-(4-(3-oxomorpholino)phenyl)benzamide] yielded an IC50 against human FXa of over 1000 nM.

Molecule `Cc1cccc(C(=O)Nc2ccc(N3CCOCC3=O)cc2)c1NC(=O)c1ccc(Cl)cc1` [Compound 1x, 2-(4-Chlorobenzamido)-3-methyl-N-(4-(3-oxomorpholino)phenyl)benzamide] yielded a concentration for half-maximal inhibition (IC50) against human FXa of over 1000 nM.

For `COc1ccc(C(=O)Nc2cccc(O)c2NC(=O)c2ccc(N3CCCN(C)CC3)cc2)cc1` [Darexaban], the IC50 in the assay on FXa was 54.6 nM.

For the molecule `O=C(NC[C@H]1CN(c2ccc(N3CCOCC3=O)cc2)C(=O)O1)c1ccc(Cl)s1` [Rivaroxaban, reference compound], the “2 × PT (μM) (Rat)” value in the assay with rat plasma was found to be 0.3 µM. In addition, the “2 × PT (μM) (Human)” value in the assay with human plasma amounted to 0.2 µM. Moreover, the 50% inhibitory concentration (IC50) in the assay with thrombin is over 6900 nM; in the assay with FXa, […].
